Results taken from publication PMC3665795, “Crystal Structure of a Novel N-Substituted L-Amino Acid Dioxygenase from Burkholderia ambifaria AMMD” (PLoS ONE, 2013).

Assays:
SadA = molecular target: T1, SadA (Burkholderia ambifaria, UniProt Q0B2N4); test: X-ray crystal structure, […] Å; format: binding; conditions: Zn(II) in place of Fe(II); cocrystallized with 10 mM α-KG; 0.1 M CHES pH 9.5, 30% PEG 3,000, 293 K; active site, chain A, bidentate to the metal
T1 construct: gene Bamb_6045; dimer
T1 sequence (Q0B2N4 1-273): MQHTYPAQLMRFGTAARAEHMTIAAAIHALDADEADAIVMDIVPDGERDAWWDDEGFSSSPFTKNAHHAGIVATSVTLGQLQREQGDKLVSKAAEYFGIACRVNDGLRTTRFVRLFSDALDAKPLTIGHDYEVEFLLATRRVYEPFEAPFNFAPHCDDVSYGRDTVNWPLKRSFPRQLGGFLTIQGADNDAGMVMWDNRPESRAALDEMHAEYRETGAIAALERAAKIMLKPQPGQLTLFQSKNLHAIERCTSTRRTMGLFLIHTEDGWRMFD

[1] = molecular target: SadA, N-substituted L-amino acid dioxygenase from Burkholderia ambifaria AMMD (Burkholderia ambifaria AMMD); test: SEC; Superdex 200 size-exclusion chromatography; calibrated with ovalbumin (43 kDa) and conalbumin (75 kDa)

Row | Compound | X-ray crystal structure, 1.98 Å (SadA) | stoichiometry N [1]
1 | O=C(O)CCC(=O)C(=O)O [α-KG] | only one α-KG molecule is clearly observed in chain A of the SadA.Zn(II).α-KG structure | –
2 | SadA, N-substituted L-amino acid dioxygenase from Burkholderia ambifaria AMMD (enzyme) | – | 2
